Molecular target: T1, hPXR (Homo sapiens, UniProt O75469)
T1 construct: expressed in transfected cells; provided by Dr. Taosheng Chen, St. Jude
T1 sequence (O75469 1-434): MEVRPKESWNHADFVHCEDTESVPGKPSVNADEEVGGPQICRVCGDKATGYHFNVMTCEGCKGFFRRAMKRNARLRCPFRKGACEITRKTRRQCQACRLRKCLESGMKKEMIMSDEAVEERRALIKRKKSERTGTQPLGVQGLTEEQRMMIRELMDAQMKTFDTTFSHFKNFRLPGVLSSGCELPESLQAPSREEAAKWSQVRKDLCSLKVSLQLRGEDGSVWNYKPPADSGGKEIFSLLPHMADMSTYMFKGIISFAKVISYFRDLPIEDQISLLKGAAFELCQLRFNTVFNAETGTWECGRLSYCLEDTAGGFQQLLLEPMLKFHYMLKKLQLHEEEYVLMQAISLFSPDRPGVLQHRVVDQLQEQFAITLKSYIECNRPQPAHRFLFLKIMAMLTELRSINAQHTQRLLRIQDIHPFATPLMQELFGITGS
Assay: PXR luciferase reporter gene assay (qHTS antagonist mode, rifampicin co-treatment) in HepG2-CYP3A4-hPXR cells
Assay type: cell-based
Details: 2 μM rifampicin, used as treatment concentration in HepaRG cells
Procedure: HepG2 cells stably transfected with a CYP3A4-luc promoter construct and hPXR expression plasmid were provided by Dr. Taosheng Chen (Department of Chemical Biology and Therapeutics, St. Jude Children’s Research Hospital) ([Lin et al., 2008]). Cells were thawed in EMEM (ATCC, Rockville, Maryland), supplemented with 10% Hyclone FBS (GE Healthcare Life Sciences, Logan, Utah) and 100 U/mL of Penicillin and 100 μg/mL of Streptomycin (Invitrogen, Carlsbad, CA) and kept in an incubator at 37°C and 5% CO2. To culture these HepG2-CYP3A4-hPXR cells, 500 μg/mL of Geneticin (GIBCO, Gaithersburg, MD) was added to the thawing media.
HepG2-CYP3A4-hPXR cells were dispensed into tissue culture treated 1536-well white assay plates (Greiner Bio-One North America, Monroe, NC) using a Multidrop Combi (Thermo Fisher Scientific Inc., Waltham, Massachusetts) at 2,500 cells/4 µL/well. The cell suspension was prepared using new assay media, which contained phenol red-free DMEM (GIBCO), 5% charcoal/dextran-treated FBS (Invitrogen), 1 mM sodium pyruvate (Invitrogen), 2 mM L-Glutamine (Invitrogen), and 100 U/mL of Penicillin and 100 μg/mL of Streptomycin (Invitrogen). All plates were then incubated for 4 h in a 37°C and 5% CO2 incubator. […] In the primary screen, each compound was tested at 7 concentrations ranging from 46 μM to 1.5 nM. 1 μL of rifampicin, a known PXR agonist, was also co-treated in each well, generating a final concentration of 2 μM, using a Flying Reagent Dispenser (Aurora Discovery, Carlsbad, California). All assay plates were placed in an incubator at 37°C with 5% CO2 for 23 h. Following the incubation period, 1 µL of CellTiter-Fluor reagent (Promega, Madison, Wisconsin) was added to each well and all assay plates were placed back into the incubator set at 37°C and 5% CO2 for 1 h. Fluorescence intensity at 540 nm was measured following excitation at 405 nm using a ViewLux plate reader (Perkin Elmer, Shelton, Connecticut), in order to assess cell viability following treatment. Directly after the fluorescent read, 4 μL of ONE-Glo Luciferase reagent (Promega, Madison, Wisconsin) was added to each well using a Flying Reagent Dispenser, and plates were left to sit at room temperature for 30 min. The luminescence of each plate was then measured using the ViewLux plate reader and data were expressed as relative luminescence units. Gross assay performance was assessed by calculating quality metrics, such as coefficient of variance (CV), signal-to-background ratio (S/B), and Z′ factor, a measure of statistical effect size frequently used to judge whether an assay can be scaled up to a large high-throughput screen ([Zhang et al., 1999]).
Data analysis was completed using a previously described protocol ([Huang et al., 2016]). […] Normalized percent activity for all test compounds was determined using the following equation: % activity = [(V compound - V DMSO)/(V DMSO–V pos)] × 100, where V compound denotes the compound well values, V pos denotes the median value of the positive control wells, and V DMSO denotes the median value of the DMSO-only wells. Following normalization, data points were corrected using DMSO-only plates included at the beginning and end of the compound plate stack using an in-house pattern correction algorithm in order to remove background patterns, as well as other small abnormalities within the dataset ([Southall et al., 2009]). […] Efficacy is then [a inf - a 0 ]. a=a0+ainf−a0 c^n/k^n+c^n
Curve class was further converted to curve rank by combining each class with efficacy, such that good quality, efficacious curves are assigned large absolute curve rank values. […] The activity outcome was based on the PXR antagonist readout activity and a cell viability counter screen.

SMILES	IC70 values from the original NPACT screen
COc1cc(-c2cn(C3CCc4c(F)cccc4N(CC(F)(F)F)C3=O)nn2)ccc1-n1cnc(C)c1 (centres unmarked) [GSM2]	4 µM
CC(=O)O[C@H]1C[C@@]2(C)[C@@H](C[C@@H](O)[C@H]3[C@@]4(C)CC[C@@H](O)[C@@H](C)[C@@H]4CC[C@@]32C)/C1=C(\CCC=C(C)C)C(=O)O [fusidic acid]	5 µM
